Source: patent US11761045B2, “Splice variants associated with neomorphic SF3B1 mutants” (Eisai R&D Management Co., Ltd., priority 2015, dated 2023)

Assays:
Nalm-6 SF3B1^K700E cells = experiment: Normal and aberrant splicing in Nalm-6 isogenic cells by qPCR; assay type: cell-based, human; conditions: increasing concentrations, six hours
Procedure: (§1) E7107 was also tested in vitro in Nalm-6 isogenic cell lines for the ability to modulate normal and aberrant splicing induced by SF3B1^WT and SF3B1^K700E protein. Nalm-6 isogenic cells were treated with increasing concentrations of E7107 for six hours and RNA was analyzed by qPCR.
(§2) In addition, the ability of E7107 to modulate splicing was tested in mice bearing human tumor xenografts. Nalm-6 isogenic xenograft mice were generated by subcutaneously implanting 10×10^6 Nalm-6 isogenic cells into the flank of CB17-SCID mice, and tumors from these mice were collected at different timepoints after a single intravenous (IV) dose of E7107 (5 mg/kg) and analyzed to determine compound concentrations and splicing regulation. RNA was isolated from the tumors using RiboPure™ RNA purification kit (Ambion®) and used for NanoString® assay or qPCR. The RNA was retrotranscribed according to the instructions of the SuperScript® VILO™ cDNA synthesis kit (Invitrogen™) and 0.04 μl of cDNA was used for qPCR. qPCR for pre-mRNA EIF4A1 and mature mRNA […] and pharmacokinetic evaluation were performed as described in Eskens, F. A. et al. “Phase I pharmacokinetic and pharmacodynamic study of the first-in-class spliceosome inhibitor E7107 in patients with advanced solid tumors.” Clin Cancer Res 19, 6296-6304, doi:10.1158/1078-0432.CCR-13-0485 (2013). The primers and probes used for ZDHHC16 were the following: FW 5′-[…] (SEQ ID NO: 1194), RW 5′ […] (SEQ ID NO: 1195) and probe 5′ FAM […] (SEQ ID NO: 1196). The primers and probes used for COASY were the following: FW 5′-CGGTGGTGCAAGTGGAA (SEQ ID NO: 1197), RW 5′-[…] (SEQ ID NO: 1198) and probe 5′-FAM-[…] (SEQ ID NO: 1199).

Nalm-6 SF3B1^K700K cells = experiment: as above; assay type: cell-based, human; conditions: increasing concentrations, six hours
Procedure: as §1, §2

SF3B1^WT = SF3B1^WT (Homo sapiens, UniProt O75533+Q7RTV0); experiment: Competitive binding assay (SPA, 3H-probe molecule) with Flag-tag SF3B1 from 293F cells; design: expressed in transfected cells; host or cells: 293F cells (Life Technologies), transient transfection with pFLAG-CMV-2-SF3B1; conditions: one nM 3H-probe; Flag-tag SF3B1^WT from transfected 293F cells; read-out: IC50, competitive inhibition of binding of the 3H-probe molecule
Sequence of SF3B1^WT (Q15393 whole entry): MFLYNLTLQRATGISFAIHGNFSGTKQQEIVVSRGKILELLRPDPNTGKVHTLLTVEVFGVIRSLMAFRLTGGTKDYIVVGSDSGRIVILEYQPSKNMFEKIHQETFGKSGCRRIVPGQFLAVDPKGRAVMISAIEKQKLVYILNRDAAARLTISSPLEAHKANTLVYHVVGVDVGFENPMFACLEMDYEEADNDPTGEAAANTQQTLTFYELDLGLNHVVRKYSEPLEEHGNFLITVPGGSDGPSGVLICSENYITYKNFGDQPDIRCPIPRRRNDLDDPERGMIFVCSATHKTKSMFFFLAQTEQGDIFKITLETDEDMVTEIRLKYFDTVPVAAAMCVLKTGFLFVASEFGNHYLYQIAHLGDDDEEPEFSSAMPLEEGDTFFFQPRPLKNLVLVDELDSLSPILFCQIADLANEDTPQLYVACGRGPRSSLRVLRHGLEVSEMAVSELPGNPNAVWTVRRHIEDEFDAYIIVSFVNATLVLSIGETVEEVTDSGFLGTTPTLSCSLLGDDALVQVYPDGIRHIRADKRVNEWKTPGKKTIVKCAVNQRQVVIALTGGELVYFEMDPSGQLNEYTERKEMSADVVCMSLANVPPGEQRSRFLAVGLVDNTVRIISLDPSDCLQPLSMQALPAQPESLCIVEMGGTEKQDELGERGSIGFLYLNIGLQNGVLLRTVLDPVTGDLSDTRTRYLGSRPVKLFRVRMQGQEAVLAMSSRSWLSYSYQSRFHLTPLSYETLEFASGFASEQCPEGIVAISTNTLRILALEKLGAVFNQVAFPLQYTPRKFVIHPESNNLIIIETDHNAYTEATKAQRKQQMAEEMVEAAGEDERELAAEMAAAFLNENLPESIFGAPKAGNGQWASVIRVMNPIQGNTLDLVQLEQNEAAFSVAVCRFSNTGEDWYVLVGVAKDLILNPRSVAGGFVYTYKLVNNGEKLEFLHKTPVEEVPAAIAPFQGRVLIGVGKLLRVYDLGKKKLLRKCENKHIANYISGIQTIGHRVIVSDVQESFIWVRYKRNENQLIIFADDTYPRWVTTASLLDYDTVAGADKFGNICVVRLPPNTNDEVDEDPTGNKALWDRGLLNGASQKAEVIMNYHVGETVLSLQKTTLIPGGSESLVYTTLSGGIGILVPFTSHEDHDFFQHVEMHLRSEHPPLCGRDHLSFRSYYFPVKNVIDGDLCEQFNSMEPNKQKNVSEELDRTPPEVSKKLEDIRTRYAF
Sequence of SF3B1^WT (Q9BWJ5 whole entry, further chain): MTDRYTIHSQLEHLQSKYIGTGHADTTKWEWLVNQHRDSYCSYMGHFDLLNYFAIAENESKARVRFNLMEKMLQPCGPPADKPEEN
Sequence of SF3B1^WT (Q7RTV0 whole entry): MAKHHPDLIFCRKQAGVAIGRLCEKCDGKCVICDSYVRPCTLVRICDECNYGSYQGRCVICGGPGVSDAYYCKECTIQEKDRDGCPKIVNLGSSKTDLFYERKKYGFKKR
Sequence of SF3B1^WT (O75533 whole entry): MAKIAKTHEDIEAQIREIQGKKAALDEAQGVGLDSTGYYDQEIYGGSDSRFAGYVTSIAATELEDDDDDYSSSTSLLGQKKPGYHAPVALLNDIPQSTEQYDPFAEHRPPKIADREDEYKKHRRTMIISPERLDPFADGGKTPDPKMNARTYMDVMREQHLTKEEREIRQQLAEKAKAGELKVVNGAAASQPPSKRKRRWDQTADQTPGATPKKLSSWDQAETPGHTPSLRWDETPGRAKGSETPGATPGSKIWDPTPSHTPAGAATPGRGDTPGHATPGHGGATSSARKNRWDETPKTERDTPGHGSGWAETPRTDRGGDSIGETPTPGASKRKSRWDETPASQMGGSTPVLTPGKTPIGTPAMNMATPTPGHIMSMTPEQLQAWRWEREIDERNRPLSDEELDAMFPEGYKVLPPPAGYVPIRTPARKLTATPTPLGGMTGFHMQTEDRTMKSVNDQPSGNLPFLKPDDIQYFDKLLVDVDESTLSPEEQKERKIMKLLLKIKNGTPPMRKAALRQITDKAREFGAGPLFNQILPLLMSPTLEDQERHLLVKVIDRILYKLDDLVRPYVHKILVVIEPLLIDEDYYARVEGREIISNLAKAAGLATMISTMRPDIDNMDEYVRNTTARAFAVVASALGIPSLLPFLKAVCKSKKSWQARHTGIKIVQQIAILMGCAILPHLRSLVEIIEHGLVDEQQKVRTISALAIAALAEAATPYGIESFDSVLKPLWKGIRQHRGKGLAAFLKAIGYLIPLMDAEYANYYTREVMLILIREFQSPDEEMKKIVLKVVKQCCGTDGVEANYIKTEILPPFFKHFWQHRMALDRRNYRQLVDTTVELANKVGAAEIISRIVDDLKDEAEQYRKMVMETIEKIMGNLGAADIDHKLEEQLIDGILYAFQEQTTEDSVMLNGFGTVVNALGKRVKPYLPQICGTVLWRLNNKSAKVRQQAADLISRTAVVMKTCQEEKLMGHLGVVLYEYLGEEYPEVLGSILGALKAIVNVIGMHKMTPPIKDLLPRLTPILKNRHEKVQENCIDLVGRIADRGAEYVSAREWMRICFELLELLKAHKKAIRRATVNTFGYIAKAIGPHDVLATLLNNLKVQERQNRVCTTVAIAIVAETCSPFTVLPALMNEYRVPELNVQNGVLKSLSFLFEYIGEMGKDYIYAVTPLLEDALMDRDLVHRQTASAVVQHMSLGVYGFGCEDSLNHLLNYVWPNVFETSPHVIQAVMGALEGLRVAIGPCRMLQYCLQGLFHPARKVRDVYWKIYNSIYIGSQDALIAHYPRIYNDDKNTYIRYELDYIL
Procedure: The ability of E7107 to bind both SF3B1^WT and SF3B1^K700E proteins was evaluated in a competitive binding assay using Flag-tag SF3B1 proteins immunoprecipitated with anti-Flag antibody from transiently transfected 293F cells. Batch immobilization of antibody to beads was prepared by incubating 80 μg of anti-SF3B1 antibody (MBL International) and 24 mg anti-mouse PVT SPA scintillation beads (PerkinElmer) for 30 minutes. After centrifugation, the antibody-bead mixture was resuspended in PBS supplemented with PhosSTOP phosphatase inhibitor cocktail (Roche) and complete ULTRA protease inhibitor cocktail (Roche). Nuclear extracts were prepared by diluting 40 mg into a total volume of 16 mL PBS with phosphatase and protease inhibitors, and the mixture was centrifuged. The supernatant was transferred into a clean tube, and the antibody-bead mixture was added and incubated for two hours. The beads were collected by centrifuging, washed twice with PBS+0.1% Triton X-100, and resuspended with 4.8 mL of PBS. 100 μL binding reactions were prepared using slurry and varying concentrations of E7107. […] The mixture was incubated at room temperature for 15 minutes, and luminescence signals were read using a MicroBeta2 Plate Counter (PerkinElmer).

CC[C@H](O)[C@@H](C)[C@H]1O[C@@H]1C[C@@](C)(O)/C=C/C=C(\C)[C@H]1OC(=O)C[C@H](O)CC[C@@](C)(O)[C@@H](OC(=O)N2CCN(C3CCCCCC3)CC2)/C=C/[C@@H]1C [Compound E7107]
EIF4A1 pre-mRNA level (canonical splicing) (Nalm-6 SF3B1^K700E cells): accumulation of pre-mRNA for EIF4A1
SLC25A19 mature mRNA level (canonical splicing) (Nalm-6 SF3B1^K700E cells): downregulation of the mature mRNA SLC25A19
mature mRNA of abnormally spliced isoform of COASY (Nalm-6 SF3B1^K700E cells): downregulation of mature mRNA
mature mRNA of abnormally spliced isoform of ZDHHC16 (Nalm-6 SF3B1^K700E cells): downregulation of mature mRNA
EIF4A1 pre-mRNA level (canonical splicing) (Nalm-6 SF3B1^K700K cells): accumulation of pre-mRNA for EIF4A1
SLC25A19 mature mRNA level (canonical splicing) (Nalm-6 SF3B1^K700K cells): downregulation of the mature mRNA SLC25A19
IC50 (SF3B1^WT): 13 nM
